Experimental data taken from patent publication US20080076824A1, “Compounds That Inhibit Replication Of Human Immunodeficiency Virus” (priority 2004, published 2008).
≈ marks a conversion by molar mass, not a printed value. Read-outs that look alike come from different tables or passages of the source. Non-standard residues stand in square brackets, D forms with d. Residues, ends and D or L forms follow the SMILES beside them. pGlu = O=C1CC[C@@H](C(=O)O)N1

Assays:
[1] = molecular target: T1, dipeptidylpeptidase activity associated with BS (Bos taurus, UniProt P81425); experiment: Inhibition of dipeptidylpeptidase activity of fetal bovine serum (substrate GP-pNA); type: biochemical; conditions: read-out: 50% inhibitory concentration (IC50)
T1 construct: from tissue; host or cells: fetal bovine serum

[2] = tested on: HIV-2 (ROD); experiment: microbe, parasite or virus in culture; type: cell-based; conditions: 2 (ROD)
Method: Human T-lymphocytic CEM cells (4.5×10^5 cells per ml) were suspended in fresh cell culture medium and infected with HIV-1 (IIIB and NL4.3) or HIV-2 (ROD or EHO) at 100 CCID50 (1 CCID50 being the virus dose infective for 50% of the cell cultures) per ml of cell suspension. Then, 100 μl of the infected cell suspension were transferred to microplate wells, mixed with 100 μl of appropriate (freshly prepared) dilutions of the test compounds (i.e., at final concentrations of […]), and were further incubated at 37° C. After 4 to 5 days, giant cell formation was recorded microscopically in the CEM cell cultures. […] (See Table 1).
MT-4, C8166 or CEM cells (4 to 5×10^5 cells per ml) were suspended in fresh culture medium (RPMI-1640 medium supplemented with 10% fetal bovine serum (FBS) (BioWittaker Europe, Verviers, Belgium), 2 mM L-glutamine and […] NaHCO3). Subsequently, the cells were infected with HIV-1 (IIIB) or HIV-2(ROD) at ˜100 CCID50 (1 CCID50 being the dose infective for 50% of the cell cultures) per ml of cell suspension. Then, 100 μl of the infected cell suspension were transferred to 96-well microplate wells, mixed with 100 μl of the appropriate (5-fold) dilutions of the test compounds and further incubated at 37° C. After 4 to 5 days, giant cell formation was recorded microscopically in the CEM and C8166 cell cultures. The MT-4 cell cultures were treated with trypan blue and the number of viable cells was determined.

[3] = tested on: HIV-2 (EHO)
Method: Human T-lymphocytic CEM cells (4.5×10^5 cells per ml) were suspended in fresh cell culture medium and infected with HIV-1 (IIIB and NL4.3) or HIV-2 (ROD or EHO) at 100 CCID50 (1 CCID50 being the virus dose infective for 50% of the cell cultures) per ml of cell suspension. Then, 100 μl of the infected cell suspension were transferred to microplate wells, mixed with 100 μl of appropriate (freshly prepared) dilutions of the test compounds (i.e., at final concentrations of […]), and were further incubated at 37° C. After 4 to 5 days, giant cell formation was recorded microscopically in the CEM cell cultures.

[4] = molecular target: T2, CD26/dipeptidylpeptidase IV (Homo sapiens, UniProt P27487); experiment: Conversion of GPG-NH2 to GP-OH and G-NH2 by purified CD26; type: biochemical
T2 construct: made in house; by own knowledge a natural human source (seminal plasma), not recombinant
Method: In some experiments, approximately, 100 μM GPG-NH2 was exposed to 25 units/l of purified CD26 and the mixture was incubated for up to 400 minutes at room temperature. The lymphocyte surface glycoprotein CD26/dipeptidylpeptidase IV was purified as described before. (See De Meester, J. Immunol. Methods, 189:99-105 (1996), herein expressly incorporated by reference in its entirety). At different time points, an aliquot of the reaction mixture was withdrawn and analyzed on an electrospray ion trap mass spectrometer (Esquire, Bruker, Bremen, Germany). The appearance of the dipeptide GP-OH upon release from the amino terminal end of the GPG-NH2 molecule, as well as, the disappearance of intact GPG-NH2 from the reaction mixture was determined and monitored by electrospray ion trap mass spectometric analysis at different time points (See FIG. 3). Under these experimental conditions, CD26 released GP-OH in a time-dependent manner from GPG-NH2, and virtually completely converted GPG-NH2 to GP-OH and G-NH2 within 4 to 6 hrs of the reaction.
Next, the conversion of radiolabeled [^14C]GPG-NH2 to [^14C]G-NH2 by purified CD26, fetal bovine serum (FBS), human serum (HS) and CEM cell suspensions was analyzed. […] A variety of these [^14C]GPG-NH2 concentrations were exposed to purified CD26, FBS, HS and CEM cell suspensions and the conversion to G-NH2 was analyzed. […]

[5] = tested on: HIV-1 (IIIB); conditions: in words
[6] = in vitro; conditions: human
[7] = tested on: Coxsackie virus B4; experiment: Antiviral activity in HeLa cell cultures, Coxsackie virus B4; type: cell-based
Method: (§1) The cytotoxicity and antiviral activity of various concentrations of G-NH2 and GPG-NH2 were evaluated in cell cultures that were infected with various types of viruses. Conventional host cell culture, viral infection, and infectivity analysis for each different type of cell and virus were followed. Compounds that were known to inhibit replication of the particular types of viruses analyzed were used as controls.

[8] = tested on: Coxsackie virus B4; experiment: Antiviral activity in Vero cell cultures, Coxsackie virus B4; type: cell-based
Method: as §1

[9] = tested on: Parainfluenza-3 virus; experiment: organism not typed; conditions: Vero, read-out: Minimum inhibitory concentration Parainfluenza-3 virus
[10] = tested on: Reovirus-1; experiment: organism not typed; conditions: Vero, read-out: Minimum inhibitory concentration Reovirus-1
[11] = tested on: Herpes simplex virus-1 (KOS); experiment: microbe, parasite or virus in culture; conditions: Human alphaherpesvirus 1, HEL, read-out: Minimum inhibitory concentration Herpes simplex virus-1 (KOS)
[12] = tested on: Herpes simplex virus-2 (G); experiment: microbe, parasite or virus in culture; conditions: Human alphaherpesvirus 2, HEL, read-out: Minimum inhibitory concentration Herpes simplex virus-2 (G)
[13] = tested on: Vaccinia virus; experiment: microbe, parasite or virus in culture; conditions: Orthopoxvirus vaccinia, HEL, read-out: Minimum inhibitory concentration Vaccinia virus
[14] = tested on: Vesicular stomatitis virus; experiment: microbe, parasite or virus in culture; conditions: HEL, read-out: Minimum inhibitory concentration Vesicular stomatitis virus
[15] = tested on: Herpes simplex virus-1 TK^− KOS ACV^r; experiment: microbe, parasite or virus in culture; conditions: Human alphaherpesvirus 1, HEL, read-out: Minimum inhibitory concentration Herpes simplex virus-1 TK^− KOS ACV^r
[16] = tested on: Vesicular stomatitis virus; experiment: microbe, parasite or virus in culture; conditions: HeLa, read-out: Minimum inhibitory concentration Vesicular stomatitis virus
[17] = tested on: Respiratory syncytial virus; experiment: microbe, parasite or virus in culture; conditions: human respiratory syncytial virus, HeLa, read-out: Minimum inhibitory concentration Respiratory syncytial virus
[18] = tested on: Sindbis virus; experiment: microbe, parasite or virus in culture; conditions: Vero, read-out: Minimum inhibitory concentration Sindbis virus
[19] = tested on: Punta Toro virus; experiment: microbe, parasite or virus in culture; conditions: Vero, read-out: Minimum inhibitory concentration Punta Toro virus
[20] = tested on: HEL cell cultures; experiment: Cytotoxicity in HEL cell cultures (cell morphology); conditions: alteration of normal cell morphology
[21] = tested on: HeLa cell cultures; experiment: Cytotoxicity in HeLa cell cultures (cell morphology); conditions: alteration of normal cell morphology
[22] = tested on: Vero cell cultures; experiment: Cytotoxicity in Vero cell cultures (cell morphology); conditions: alteration of normal cell morphology
[23] = tested on: HeLa cell cultures
[24] = tested on: Vesicular stomatitis virus; conditions: HeLa; reduces virus-induced cytopathogenicity by 50%
[25] = tested on: Respiratory syncytial virus; conditions: HeLa; reduces virus-induced cytopathogenicity by 50%
[26] = tested on: Vero cell cultures
[27] = tested on: Parainfluenza-3 virus; conditions: Vero; reduces virus-induced cytopathogenicity by 50%
[28] = tested on: Reovirus-1; conditions: Vero; reduces virus-induced cytopathogenicity by 50%
[29] = tested on: Sindbis virus; conditions: Vero; reduces virus-induced cytopathogenicity by 50%
[30] = tested on: Punta Toro virus; conditions: Vero; reduces virus-induced cytopathogenicity by 50%
[31] = Enterovirus B, B4, reduces virus-induced cytopathogenicity by 50%, read-out: Minimum inhibitory concentration Coxsackie virus B4
[32] = reduces virus-induced cytopathogenicity by 50%

T2 sequence (P27487 whole entry): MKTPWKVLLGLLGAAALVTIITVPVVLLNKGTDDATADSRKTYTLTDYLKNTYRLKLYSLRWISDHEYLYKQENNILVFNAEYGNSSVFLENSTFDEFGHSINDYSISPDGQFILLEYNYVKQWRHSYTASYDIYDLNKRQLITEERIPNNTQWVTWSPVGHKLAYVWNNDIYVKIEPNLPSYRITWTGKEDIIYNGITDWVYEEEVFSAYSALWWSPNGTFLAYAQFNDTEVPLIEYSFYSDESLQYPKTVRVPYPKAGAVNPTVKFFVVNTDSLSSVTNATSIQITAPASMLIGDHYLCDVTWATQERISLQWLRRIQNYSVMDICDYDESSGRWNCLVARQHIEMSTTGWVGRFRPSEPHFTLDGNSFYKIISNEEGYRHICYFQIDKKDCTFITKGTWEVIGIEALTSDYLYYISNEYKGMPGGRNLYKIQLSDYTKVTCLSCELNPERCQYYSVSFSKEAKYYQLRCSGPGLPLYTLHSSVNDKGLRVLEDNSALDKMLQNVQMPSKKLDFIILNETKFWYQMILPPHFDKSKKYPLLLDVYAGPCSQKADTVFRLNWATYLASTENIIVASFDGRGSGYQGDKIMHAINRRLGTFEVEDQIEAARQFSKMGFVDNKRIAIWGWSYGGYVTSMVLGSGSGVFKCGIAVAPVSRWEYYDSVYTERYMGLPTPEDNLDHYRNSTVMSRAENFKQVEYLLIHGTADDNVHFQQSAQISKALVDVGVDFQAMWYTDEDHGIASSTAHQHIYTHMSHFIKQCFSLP
T1 sequence (P81425 38-765 limits assumed): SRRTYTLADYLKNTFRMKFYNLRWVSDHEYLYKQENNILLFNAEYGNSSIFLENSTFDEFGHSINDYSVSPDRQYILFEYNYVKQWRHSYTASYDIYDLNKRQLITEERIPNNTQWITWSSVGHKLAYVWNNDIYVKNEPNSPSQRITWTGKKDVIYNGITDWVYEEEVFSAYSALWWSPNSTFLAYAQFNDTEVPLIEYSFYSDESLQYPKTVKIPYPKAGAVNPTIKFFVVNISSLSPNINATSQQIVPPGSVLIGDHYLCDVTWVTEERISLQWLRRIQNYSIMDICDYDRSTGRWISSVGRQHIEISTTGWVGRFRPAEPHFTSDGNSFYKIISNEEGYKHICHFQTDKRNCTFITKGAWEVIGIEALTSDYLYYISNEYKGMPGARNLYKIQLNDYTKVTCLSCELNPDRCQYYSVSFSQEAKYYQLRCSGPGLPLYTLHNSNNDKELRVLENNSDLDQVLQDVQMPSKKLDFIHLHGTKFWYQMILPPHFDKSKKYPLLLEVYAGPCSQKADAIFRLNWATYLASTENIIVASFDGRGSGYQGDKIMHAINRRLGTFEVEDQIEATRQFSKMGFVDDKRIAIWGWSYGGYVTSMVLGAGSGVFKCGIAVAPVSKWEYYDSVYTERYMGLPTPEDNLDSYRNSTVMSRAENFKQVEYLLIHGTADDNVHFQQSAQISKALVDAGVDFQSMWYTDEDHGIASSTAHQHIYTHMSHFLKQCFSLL

**Q.** Which IC50 [1] does the source give for `CCC(C)C(N)C(=O)N1CCCC1` [IlePyr, L-isoleucinepyrrolidine] here?
**A.** 99 µM

**Q.** Which EC50 [2] does the source give for `NC(=O)CNC(=O)[C@@H]1CCCN1C(=O)[C@@H]1CCC(=O)N1` [PyrQ-PG-NH2, cyclic pyrroglutaminylprolylglycinamide] ([pGlu]-Pro-Gly-NH2) here?
**A.** > 2000 µM

**Q.** And the EC50 [3]?
**A.** > 2000 µM

**Q.** What about the “release of G-NH2 by CD26” value [4] of the same compound?
**A.** unable to release G-NH2

**Q.** And the “inhibition of HIV replication in cell culture” value [5]?
**A.** ineffective

**Q.** And the EC50 [6]?
**A.** > 2000 µM

**Q.** For `O=c1[nH]c(=O)n([C@H]2C[C@H](O)[C@@H](CO)O2)cc1/C=C/Br` [BVDU], which EC50 [7, 31] is on record?
**A.** > 400 µg/mL

**Q.** What about the EC50 [8, 31] of the same compound?
**A.** > 400 µg/mL

**Q.** And the EC50 [9]?
**A.** > 400 µg/mL

**Q.** What about the EC50 [10] of the same compound?
**A.** > 400 µg/mL

**Q.** And the EC50 [11]?
**A.** 0.0256 µg/mL (≈ 0.0768 µM)

**Q.** And the EC50 [12]?
**A.** > 400 µg/mL

**Q.** What about the EC50 [13] of the same compound?
**A.** 0.64 µg/mL (≈ 1.92 µM)

**Q.** What about the EC50 [14] of the same compound?
**A.** 400 µg/mL (≈ 1200 µM)

**Q.** What about the EC50 [15] of the same compound?
**A.** 400 µg/mL (≈ 1200 µM)

**Q.** And the EC50 [16]?
**A.** > 400 µg/mL

**Q.** And the EC50 [17]?
**A.** > 400 µg/mL

**Q.** And the EC50 [18]?
**A.** > 400 µg/mL

**Q.** What about the EC50 [19] of the same compound?
**A.** > 400 µg/mL

**Q.** And the “Minimum cytotoxic concentration” value [20]?
**A.** >400 µg/mL

**Q.** What about the Minimum cytotoxic concentration [21] of the same compound?
**A.** ≧400 μg/ml

**Q.** What about the Minimum cytotoxic concentration [22] of the same compound?
**A.** >400 µg/mL

**Q.** For `Nc1ncnc2c1ncn2C[C@H](O)CO` [(S)-DHPA, reference compound], which “Minimum inhibitory concentration Coxsackie virus B4” value [7, 32] is on record?
**A.** >400 µg/mL

**Q.** What about the “Minimum inhibitory concentration Coxsackie virus B4” value [8, 32] of the same compound?
**A.** >400 µg/mL

**Q.** What about the Minimum cytotoxic concentration [23] of the same compound?
**A.** >400 µg/mL

**Q.** And the “Minimum inhibitory concentration Vesicular stomatitis virus” value [24]?
**A.** 240 µg/mL (≈ 1150 µM)

**Q.** And the “Minimum inhibitory concentration Respiratory syncytial virus” value [25]?
**A.** >400 µg/mL

**Q.** What about the Minimum cytotoxic concentration [26] of the same compound?
**A.** >400 µg/mL

**Q.** What about the “Minimum inhibitory concentration Parainfluenza-3 virus” value [27] of the same compound?
**A.** 240 µg/mL (≈ 1150 µM)

**Q.** What about the “Minimum inhibitory concentration Reovirus-1” value [28] of the same compound?
**A.** 80 µg/mL (≈ 382 µM)

**Q.** What about the “Minimum inhibitory concentration Sindbis virus” value [29] of the same compound?
**A.** >400 µg/mL

**Q.** What about the “Minimum inhibitory concentration Punta Toro virus” value [30] of the same compound?
**A.** >400 µg/mL
